Data on 1 molecule can be found in patent publication US20210177824A1, “EXTENDED RELEASE FORMULATIONS FOR INTRA-ARTICULAR APPLICATIONS” (NOVARTIS AG, priority 2017, published 2021).

Type in all cases: physicochemical
A short description of data set [1]: pKa of Compound A. Conditions: weakly basic. The source says:
(§1) Compound A can be formulated as immediate release formulations for intra-articular injection. However, due to a high fluid exchange between the synovial fluid and the blood stream, immediate release formulations have a short synovial residence half-life and require frequent injections.

Data set [2] can be described thus: Aqueous solubility of Compound A as a function of pH.
From the text: as §1

Data set [3] is described as follows: Particle size and surface area of micronized Compound A micro-crystals. The source says:
Compound A can be micronized using any methods known to those skilled in the art. Un-milled Compound A is subjected to a size reduction process to obtain particle size. The size reduction of Compound A can be performed using any known methods such as by jet-milling technology, and more particularly, by spiral jet-milling technology, fluidized bed opposed jet-milling technology or loop jet-milling technology.
In yet other embodiments, Compound A was micronized to form micro-crystals with maximal particle diameters characterized in Table 1.

Each structure is given as a SMILES string. Bounds are passed on as bounds.

For orientation: pKa means the pH at which an ionisable group is half protonated. Low readings indicate a group that gives up its proton readily, high ones a group that holds its proton tightly. For `O=C(Nc1ccc(Cl)c(Cl)c1)[C@@H]1[C@@H](c2ccncc2)[C@@H]2CC[C@H]1O2` [Compound A, N-(3,4-dichlorophenyl)-3-(pyridin-4-yl)-7-oxabicyclo[2.2.1] heptane-2-carboxamide], the pKa in data set [1] stood at 5.2. The “pH dependence of solubility” value in data set [2] is listed as “Solubility increases with decreasing pH”. For the same molecule, in data set [2] (neutral and basic pH), the “Solubility in neutral pH and basic pH aqueous solutions” value is given as “poorly soluble”. In data set [3], the “Particle size: D10” value is ≤1.4 μm, the “Particle size: D50” value is reported as ≤6.1 μm, the “Particle size: D90” value was ≤29.7 μm and the Surface area worked out at 3 m^2/g.
